From PubChem BioAssay (NCI) come the findings set out here.

The structures appear in SMILES notation.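 Values below derive from 48-hour exposures of cells grown in 96-well plates, with endpoints linearly interpolated between the two concentrations bracketing the appropriate inhibition level. TGI denotes the concentration required for complete inhibition of growth.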

Some test systems named below: A498 renal; BT-549 breast; HCT-116 colon; HL-60(TB) leukemia; HOP-62 NSCLC; HT29 colon; IGROV1 ovarian; KM12 colon; M14 melanoma; MDA-N; NCI-H226 lung; NCI-H23 lung; NCI-H460 lung; SF-268 CNS; SF-295 CNS; SK-MEL-5 melanoma; SNB-19 CNS; U251 CNS; UACC-257 melanoma; SR leukemia.
Holding throughout (experiment): inhibition of tumour cell growth, NCI panel, 48 h

Regarding `Nc1ccc(S(=O)(=O)c2ccc(NC(=O)c3cccnc3)cc2)cc1`, the TGI in the experiment on A498 renal, with BT-549 breast, in the experiment on HCT-116 colon, with HL-60(TB) leukemia, with HOP-62 NSCLC and in the experiment on HT29 colon was > 100 µM throughout. The TGI in the experiment on IGROV1 ovarian, in the experiment with KM12 colon, in the experiment on M14 melanoma, with MDA-N, with NCI-H226 lung and in the experiment on NCI-H23 lung was > 100 µM throughout. The TGI in the experiment on NCI-H460 lung, in the experiment with SF-268 CNS, in the experiment with SF-295 CNS, with SK-MEL-5 melanoma, in the experiment on SNB-19 CNS and with U251 CNS was > 100 µM throughout. In addition, the TGI with UACC-257 melanoma is > 100 µM.
With `O=[N+]([O-])/C(C(Cl)=C(Cl)Cl)=C1/OCCS1`, the TGI in the experiment with A498 renal is 36.8 µM; in the experiment with HCT-116 colon it was 35.2 µM; in the experiment on HL-60(TB) leukemia, 37.6 µM; with HOP-62 NSCLC, 40.4 µM; with HT29 colon, > 100 µM; with IGROV1 ovarian it was 47.7 µM. Moreover, the TGI is 94.3 µM in the experiment on KM12 colon; > 100 µM in the experiment with M14 melanoma; > 100 µM in the experiment with MDA-N; 56.1 µM in the experiment on NCI-H226 lung; 72.4 µM in the experiment with NCI-H23 lung; 71.4 µM in the experiment with NCI-H460 lung. Also, the TGI in the experiment on SF-268 CNS was 71.1 µM; in the experiment on SF-295 CNS it was 90.5 µM; in the experiment with SK-MEL-5 melanoma, 34 µM; in the experiment with SNB-19 CNS it was > 100 µM; with SR leukemia it was 71.5 µM; in the experiment on U251 CNS it was > 100 µM. This molecule yielded a TGI in the experiment on UACC-257 melanoma of 67.3 µM.
Regarding `O=C1C(=O)N(C2CCCCC2)C(=S)N1C1CCCCC1`, the TGI in the experiment on A498 renal, in the experiment with HCT-116 colon, in the experiment on HL-60(TB) leukemia, with HOP-62 NSCLC, with HT29 colon and in the experiment on IGROV1 ovarian was > 100 µM throughout. For the same molecule, the TGI in the experiment on KM12 colon, in the experiment on MDA-N, in the experiment with NCI-H226 lung, with NCI-H23 lung, in the experiment on NCI-H460 lung and with SF-268 CNS was > 100 µM throughout. The TGI in the experiment on SF-295 CNS, in the experiment with SK-MEL-5 melanoma, with SNB-19 CNS, in the experiment with SR leukemia, in the experiment with U251 CNS and with UACC-257 melanoma was > 100 µM each time.
In the case of `Cn1c(COC(=O)NC2CCCCC2)c(COC(=O)NC2CCCCC2)c2ccc3cc(Cl)c(Cl)cc3c21`, the TGI in the experiment with A498 renal came out at 25.9 µM; with BT-549 breast it was 30.5 µM; in the experiment on HCT-116 colon, 23.1 µM; with HL-60(TB) leukemia, 26.4 µM; in the experiment on HT29 colon, 69.3 µM; with IGROV1 ovarian, 39.1 µM. Further, the TGI in the experiment with KM12 colon was 36.4 µM; with M14 melanoma, 36.7 µM; in the experiment on MDA-N it was 25.4 µM; in the experiment with NCI-H226 lung, > 100 µM; with NCI-H23 lung, 40.5 µM; with NCI-H460 lung it was 17.3 µM. The TGI in the experiment on SF-268 CNS is 24.5 µM; in the experiment on SF-295 CNS it was > 100 µM; with SK-MEL-5 melanoma, 26.4 µM; in the experiment on SNB-19 CNS, 26.1 µM; in the experiment with UACC-257 melanoma it was 29 µM.
With `CCc1cc2c(cc1CCCC(=O)O)CC1(Cc3ccc(C(=O)O)cc3C1)C2` (stereo unspecified), the TGI with A498 renal, in the experiment on HCT-116 colon, in the experiment on HL-60(TB) leukemia, in the experiment on HOP-62 NSCLC, with HT29 colon and with IGROV1 ovarian was > 100 µM each time. Also, the TGI in the experiment with KM12 colon, with M14 melanoma, in the experiment on MDA-N, with NCI-H226 lung, in the experiment with NCI-H23 lung and with NCI-H460 lung was > 100 µM in each case. Moreover, the TGI in the experiment with SF-268 CNS, with SF-295 CNS, in the experiment on SK-MEL-5 melanoma, in the experiment with SNB-19 CNS, with SR leukemia and in the experiment with U251 CNS was > 100 µM each time. For the same molecule, in the experiment on UACC-257 melanoma, the TGI was > 100 µM.
In the case of `CC(C)N1CSC(=S)N(Cc2ccccc2)C1`, the TGI is > 10 µM with A498 renal; > 10 µM in the experiment with HCT-116 colon; 0.652 µM in the experiment on HL-60(TB) leukemia; > 10 µM with HOP-62 NSCLC; 6.04 µM with HT29 colon; > 10 µM in the experiment on IGROV1 ovarian. The TGI in the experiment with KM12 colon was > 10 µM; in the experiment on MDA-N, 7.44 µM; in the experiment with NCI-H23 lung it was > 10 µM; with NCI-H460 lung it was > 10 µM; in the experiment on SF-268 CNS it was > 10 µM; with SF-295 CNS it was > 10 µM. Also, the TGI is > 10 µM in the experiment on SK-MEL-5 melanoma, > 10 µM in the experiment with SNB-19 CNS, 4.81 µM with SR leukemia and > 10 µM in the experiment with U251 CNS.
`CCOC(=O)N1CCN(C(=O)Nc2cccc3ccccc23)CC1`: the TGI in the experiment with A498 renal, with HCT-116 colon, in the experiment on HL-60(TB) leukemia, in the experiment on HOP-62 NSCLC, in the experiment with HT29 colon and in the experiment with IGROV1 ovarian was > 10 µM in each case. Also, the TGI with KM12 colon, with M14 melanoma, in the experiment with MDA-N, in the experiment with NCI-H226 lung, in the experiment with NCI-H23 lung and with NCI-H460 lung was > 10 µM each time. Also, the TGI in the experiment with SF-268 CNS, with SF-295 CNS, with SK-MEL-5 melanoma, in the experiment on SNB-19 CNS, in the experiment on SR leukemia and with U251 CNS was > 10 µM in each case.
Turning to `Cc1ccc(NC(=O)CC(=O)n2nc(C)c(N=Nc3ccc(S(=O)(=O)CCOS(=O)(=O)O)cc3)c2C)cc1`, the TGI with A498 renal, in the experiment with HCT-116 colon, in the experiment on HL-60(TB) leukemia, in the experiment with HOP-62 NSCLC, with HT29 colon and with IGROV1 ovarian was > 100 µM in each case. The TGI in the experiment on KM12 colon, in the experiment with M14 melanoma, in the experiment with MDA-N, with NCI-H226 lung, in the experiment with NCI-H23 lung and in the experiment with NCI-H460 lung was > 100 µM each time. For the same molecule, the TGI in the experiment with SF-268 CNS, in the experiment on SF-295 CNS, in the experiment on SK-MEL-5 melanoma, with SNB-19 CNS, in the experiment with U251 CNS and in the experiment on UACC-257 melanoma was > 100 µM in each case.
As to `O=C(CC(C(=O)c1ccsc1)c1ccccc1)c1cccs1` (stereo unspecified), the TGI in the experiment with A498 renal, in the experiment on HCT-116 colon, with HL-60(TB) leukemia, in the experiment with HOP-62 NSCLC, with HT29 colon and in the experiment with IGROV1 ovarian was > 100 µM each time. Also, the TGI in the experiment on KM12 colon was 88.6 µM; with M14 melanoma, > 100 µM; in the experiment with MDA-N, > 100 µM; with NCI-H226 lung, > 100 µM; in the experiment with NCI-H23 lung, 77.3 µM; in the experiment with NCI-H460 lung, > 100 µM. Besides, the TGI with SF-268 CNS, with SF-295 CNS, with SK-MEL-5 melanoma, in the experiment on SR leukemia, in the experiment on U251 CNS and in the experiment on UACC-257 melanoma was > 100 µM throughout.
As to `C=C(Br)CN(CC(=C)Br)C(C)=O`, the TGI in the experiment on A498 renal, in the experiment on HCT-116 colon, in the experiment on HL-60(TB) leukemia, in the experiment with HOP-62 NSCLC, in the experiment on HT29 colon and with IGROV1 ovarian was > 100 µM throughout. Moreover, the TGI in the experiment on KM12 colon, with M14 melanoma, in the experiment with MDA-N, with NCI-H226 lung, with NCI-H23 lung and in the experiment on NCI-H460 lung was > 100 µM throughout. Besides, the TGI in the experiment with SF-268 CNS, in the experiment with SF-295 CNS, in the experiment with SK-MEL-5 melanoma, in the experiment on SNB-19 CNS, with SR leukemia and in the experiment with U251 CNS was > 100 µM each time. In addition, the TGI in the experiment with UACC-257 melanoma is > 100 µM.
In the case of `Cc1cccc(Nc2cn(CCOc3ccccc3)c(=O)n(CCOc3ccccc3)c2=O)c1`, the TGI in the experiment with A498 renal, in the experiment on HCT-116 colon, in the experiment with HOP-62 NSCLC, with IGROV1 ovarian, in the experiment with KM12 colon and with M14 melanoma was > 100 µM in each case. Besides, the TGI in the experiment on MDA-N, in the experiment with NCI-H23 lung, in the experiment with NCI-H460 lung, with SF-268 CNS, in the experiment with SF-295 CNS and with SK-MEL-5 melanoma was > 100 µM in each case. Moreover, the TGI in the experiment with SNB-19 CNS, with SR leukemia, in the experiment on U251 CNS and in the experiment on UACC-257 melanoma was > 100 µM throughout.
As for `N#Cc1c2c([nH]c(=O)c1C#N)CCCC2`, the TGI in the experiment with A498 renal, in the experiment with BT-549 breast, with HCT-116 colon, with HL-60(TB) leukemia, with HT29 colon and in the experiment with IGROV1 ovarian was > 100 µM throughout. For the same molecule, the TGI in the experiment on KM12 colon, with M14 melanoma, in the experiment with MDA-N, in the experiment with NCI-H226 lung, in the experiment with NCI-H23 lung and in the experiment with NCI-H460 lung was > 100 µM each time. Besides, the TGI in the experiment with SF-268 CNS, in the experiment with SF-295 CNS, with SK-MEL-5 melanoma, in the experiment with SNB-19 CNS, in the experiment on U251 CNS and in the experiment on UACC-257 melanoma was > 100 µM each time.
In the case of `CN(C)C(=C1c2cc([N+](=O)[O-])ccc2-c2ccc([N+](=O)[O-])cc21)N(C)C`, the TGI in the experiment on A498 renal, in the experiment on BT-549 breast, with HCT-116 colon, with HOP-62 NSCLC, in the experiment on HT29 colon and with IGROV1 ovarian was > 100 µM each time. In addition, the TGI in the experiment on KM12 colon, in the experiment on M14 melanoma, in the experiment on MDA-N, in the experiment with NCI-H226 lung, in the experiment with NCI-H23 lung and in the experiment on SF-268 CNS was > 100 µM throughout. The TGI with SF-295 CNS, in the experiment on SK-MEL-5 melanoma, with SNB-19 CNS, with U251 CNS and in the experiment with UACC-257 melanoma was > 100 µM each time.
Take `CC1=CCS(=O)(=O)C1C(O)C1=C(C)CCCC1(C)C` (stereo unspecified): the TGI in the experiment with A498 renal, with HCT-116 colon, with HL-60(TB) leukemia, with HOP-62 NSCLC, in the experiment with HT29 colon and in the experiment with IGROV1 ovarian was > 100 µM throughout. In addition, the TGI with KM12 colon, with M14 melanoma, with MDA-N, in the experiment with NCI-H226 lung, in the experiment with NCI-H23 lung and with SF-295 CNS was > 100 µM in each case. Moreover, the TGI with SK-MEL-5 melanoma, in the experiment with SNB-19 CNS, with U251 CNS and in the experiment with UACC-257 melanoma was > 100 µM in each case.
For `O=C1CCC[C@H]2O[C@@H](COCc3ccccc3)C[C@@H]12`, the TGI in the experiment on A498 renal, in the experiment on HCT-116 colon, in the experiment with HL-60(TB) leukemia, in the experiment with HOP-62 NSCLC, in the experiment with HT29 colon and with KM12 colon was > 100 µM each time. For the same molecule, the TGI in the experiment with M14 melanoma, in the experiment with MDA-N, in the experiment with NCI-H226 lung, in the experiment with NCI-H23 lung, with NCI-H460 lung and in the experiment with SF-268 CNS was > 100 µM in each case. In addition, the TGI in the experiment on SF-295 CNS, in the experiment with SK-MEL-5 melanoma, in the experiment with SNB-19 CNS, in the experiment with SR leukemia, in the experiment on U251 CNS and with UACC-257 melanoma was > 100 µM throughout.
